“Also recorded” adds a separate entry of the source. Read-outs that look alike come from different tables or passages of the source.
Experiments:
[1] = test system: B19V; assay: Antiviral assay: B19V DNA replication by qPCR in UT7/EpoS1 cells; assay type: cell-based, Human parvovirus B19; details: for EC50: B19V DNA 48 hpi vs 2 hpi, table: mean (95% CI); for inhibition of viral replication: compounds at 10 μM, 48 hpi vs 2 hpi
[2] = biological target: T1, mIMPα2ΔIBB:NS1 NLS interaction (Mus musculus, UniProt P52293); assay: AlphaScreen inhibition assay of the IMPα:NS1-NLS interaction; assay type: binding
T1 construct: made in house; host or cells: bacteria

[3] = test system: UT7/EpoS1 cells; assay: Cell cytotoxicity assay (alamarBlue HS) in UT7/EpoS1 cells; assay type: cell-based; details: for CC50: 6 h + 48 h with compound, alamarBlue, table: mean (95% CI)
[4] = test system: EPCs; assay: Cell cytotoxicity assay (WST-8, CCK-8) in EPCs; assay type: cell-based, human; details: for CC50: WST-8 based assay, TLTM: too low to measure; for cell toxicity: every concentration tested
[5] = test system: B19V; parameters: method as in earlier work; details: UT7/EpoS1 cells, IVM at 10 μM; cited from earlier work
[6] = test system: B19V; assay: Antiviral assay: B19V DNA replication by qPCR in EPCs; assay type: cell-based, Human parvovirus B19; details: B19V DNA 48 hpi vs 2 hpi, table: mean (95% CI)
[7] = titration 0-5 μM, average ± SD, 4 independent experiments, read-out: IC50

Row | Molecule | EC50 [1] [µM] | inhibition of viral replication [1] | IC50 [2, 7] [µM] | CC50 [3] [µM] | also measured
1 | CC[C@H](C)[C@H]1O[C@]2(CC[C@@H]1C)C[C@@H]1C[C@@H](C/C=C(\C)[C@@H](O[C@H]3C[C@H](OC)[C@@H](O[C@H]4C[C@H](OC)[C@@H](O)[C@H](C)O4)[C@H](C)O3)[C@@H](C)/C=C/C=C3\CO[C@@H]4[C@H](O)C(C)=C[C@@H](C(=O)O1)[C@]34O)O2 [IVM, Ivermectin] | 7.6 | inhibited viral replication | 0.0118 ± 0.004 | 14.5 | concentration from which strong inhibition of B19V DNA replication starts [1]: ≥ 6 µM; AlphaScreen counts (mIMPα2ΔIBB:NS1 NLS interaction) ([2]; IVM 10 μM (text; figure legend says 2.5 μM) vs absence): significant reduction; concentrations causing significative toxicity [3]: above 12.5 μM; CC50 [4]: TLTM; cell toxicity [4]: extremely toxic at every concentration tested; inhibition of B19V viral replication [5]: could inhibit B19V viral replication; EC50 [6]: 3.3 µM
2 | CO/N=C1\C[C@]2(C[C@@H]3C[C@@H](C/C=C(\C)C[C@@H](C)/C=C/C=C4\CO[C@@H]5[C@H](O)C(C)=C[C@@H](C(=O)O3)[C@]45O)O2)O[C@H](/C(C)=C/C(C)C)[C@H]1C [Moxidectin] |  |  | 0.0157 ± 0.0012 |  | 
3 | Milbemycin oxime |  |  | 0.0269 ± 0.0159 |  | 
4 | Avermectin B1 | 9.8 | inhibited viral replication more than IVM | 0.0361 ± 0.0177 |  | 
5 | CC(Nc1nc(N2CCCC2)nc2ccccc12)c1ccccc1 (stereo not shown) [Importazole] | 13.4 | inhibited viral replication; also recorded: inhibited viral replication more than IVM |  | 30 | 
6 | Eprinomectin | 3.2 | inhibited viral replication more than IVM | 0.0409 ± 0.0099 | 15.9 | CC50 [4]: TLTM; cell toxicity [4]: extremely toxic at every concentration tested; EC50 [6]: 6.5 µM
7 | Emamectin benzoate [Emamectin benozate] |  |  | 0.0099 ± 0.003 |  | 
8 | CO[C@H]1C[C@H](O[C@@H]2/C(C)=C/C[C@@H]3C[C@@H](C[C@]4(CC[C@H](C)[C@@H](C5CCCCC5)O4)O3)OC(=O)[C@@H]3C=C(C)/C(=N/O)[C@H]4OC/C(=C\C=C\[C@@H]2C)[C@]43O)O[C@@H](C)[C@@H]1O [Selamectin] |  |  |  |  | IC50 [2]: 0.0508 ± 0.0029 µM
